Experimental data reported in publication PMC10033419, “Blocking NS3–NS4B interaction inhibits dengue virus in non-human primates” (Nature, 2023).
Where “and” joins values, the source holds several entries; their conditions need not be identical. Identical values can stand only once. Like-named read-outs stand apart in the source and are kept apart here.

Legend:
DENV-1 G1 Djibouti = assay: DENV genotype panel RT-qPCR, Vero E6; assay type: cell-based; conditions: Dengue virus, DENV1, Vero C1008; mean ± SD
Procedure: (§1) A total of 20 DENV strains, representing the available genotypes within the four DENV serotypes, were used in the in vitro genotype panel, from which 19 viruses were described previously in ref. [3] and one additional virus, DENV-1/45AZ5 (ref. [54]), was added.
(§2) A potential toxic effect on host cells was tested in parallel, while omitting virus infection, using the MTS/PMS method (Promega) for Vero cells, or by high-content imaging for C6/36 cells, as described previously. […] RT–qPCR data were analysed using the QuantStudio 12K Flex software (v.1.2.3) or SDS v.1.2 Applied Biosystems software. Inhibition values for antiviral molecules were plotted using KaleidaGraph plotting software (v.4.03, Synergy Software).

DENV-1 G4 Indonesia = assay: DENV genotype panel RT-qPCR, Vero E6; assay type: cell-based; conditions: Dengue virus, DENV1, Vero C1008
Procedure: as §1, §2

[1] = test system: DENV-1 G5 France - Toulon; assay: DENV genotype panel RT-qPCR, Vero E6; assay type: cell-based; conditions: Dengue virus, DENV1, Vero C1008
Procedure: as §1, §2

DENV-2 American Trinidad = assay: DENV genotype panel RT-qPCR, Vero E6; assay type: cell-based; conditions: Dengue virus, DENV2, Vero C1008
Procedure: as §1, §2

DENV-2 Sylvatic Malaysia = assay: DENV genotype panel RT-qPCR, Vero E6; assay type: cell-based; conditions: Dengue virus, DENV2, Vero C1008
Procedure: as §1, §2

DENV-3 G1 Malaysia = assay: DENV genotype panel RT-qPCR, Vero E6; assay type: cell-based; conditions: Dengue virus, DENV3, Vero C1008
Procedure: as §1, §2

DENV-3 G2 Thailand = assay: DENV genotype panel RT-qPCR, Vero E6; assay type: cell-based; conditions: Dengue virus, DENV3, Vero C1008
Procedure: as §1, §2

DENV-3 G3 Bolivia = assay: DENV genotype panel RT-qPCR, Vero E6; assay type: cell-based; conditions: Dengue virus, DENV3, Vero C1008
Procedure: as §1, §2

DENV-4 G2a Malaysia = assay: DENV genotype panel RT-qPCR, Vero E6; assay type: cell-based; conditions: Dengue virus, DENV4, Vero C1008
Procedure: as §1, §2

DENV-4 G2b Brazil = assay: DENV genotype panel RT-qPCR, Vero E6; assay type: cell-based; conditions: Dengue virus, DENV4, Vero C1008
Procedure: as §1, §2

DENV-4 G3 Thailand = assay: DENV genotype panel RT-qPCR, Vero E6; assay type: cell-based; conditions: Dengue virus, DENV4, Vero C1008
Procedure: as §1, §2

DENV-4 Sylvatic Malaysia = assay: DENV genotype panel RT-qPCR, Vero E6; assay type: cell-based; conditions: Dengue virus, DENV4, Vero C1008
Procedure: as §1, §2

RSV rgRSV224 = assay: microbe, parasite or virus in culture; assay type: cell-based; conditions: human respiratory syncytial virus, HeLa
VACV Western reserve 56 = assay: microbe, parasite or virus in culture; assay type: cell-based; conditions: Orthopoxvirus vaccinia, Vero C1008; VeroE6
[2] = Pharmacokinetics in mice, i.v. and oral; assay type: in vivo, CD-1 mice; conditions: for bioavailability: po
Procedure: The housing conditions and experimental procedures were approved by the ethics committee on animal experiments of Janssen Pharmaceutica NV (license number LA1100119). Janssen Pharmaceutica NV has full AAALAC accreditation. […] The blood samples were immediately centrifuged at 4 °C and the plasma was stored at −20 °C. Compound concentrations in the plasma samples were determined using the API 5500 LC–MS/MS system mass spectrometer (Applied Biosystems). […] (Certara).

in vivo = assay: in vivo; design: species or system rhesus macaques; conditions: both sexes, Indian-strain, rhesus monkey, po, 6 mg/kg
From the text: WRAIR is fully accredited by AAALAC International.

[3] = male, CD-1, plasma, mouse oral 1 mg/kg
[4] = male, CD-1, plasma, mouse oral 10 mg/kg
[5] = male, CD-1, plasma, mouse oral 30 mg/kg
[6] = mouse i.v. 2.5 mg/kg, 2.5 mg/kg

Structure (SMILES): COc1cc(N[C@H](C(=O)c2c[nH]c3ccc(OC(F)(F)F)cc23)c2ccc(Cl)cc2OC)cc(S(C)(=O)=O)c1 [JNJ-1802]
- EC50 (DENV-1 G1 Djibouti): 0.207 ± 0.056 nM
- EC90 (DENV-1 G1 Djibouti): 0.83 ± 0.37 nM
- EC90 (DENV-1 G4 Indonesia): 0.8 ± 0.31 nM
- EC50 (DENV-1 G4 Indonesia; two of four values below threshold): < 0.19 nM
- EC90 [1]: 1.02 ± 0.68 nM
- EC50 ([1]; one of three values below threshold): < 0.23 nM
- EC50 (DENV-2 American Trinidad): 0.063 ± 0.081 nM
- EC90 (DENV-2 American Trinidad): 0.162 ± 0.083 nM
- EC50 (DENV-2 Sylvatic Malaysia): 0.0634 ± 0.0022 nM
- EC90 (DENV-2 Sylvatic Malaysia): 0.265 ± 0.029 nM
- EC50 (DENV-3 G1 Malaysia): 1.28 ± 0.46 nM
- EC90 (DENV-3 G1 Malaysia): 3.6 ± 1.9 nM
- EC50 (DENV-3 G2 Thailand): 1.68 ± 0.24 nM
- EC90 (DENV-3 G2 Thailand): 5.8 ± 3 nM
- EC50 (DENV-3 G3 Bolivia): 0.9 ± 1.1 nM
- EC90 (DENV-3 G3 Bolivia): 6.71 ± 0.66 nM
- EC50 (DENV-4 G2a Malaysia): 0.82 ± 0.71 nM
- EC90 (DENV-4 G2a Malaysia): 2.1 ± 1.7 nM
- EC50 (DENV-4 G2b Brazil): 0.521 ± 0.08 nM
- EC90 (DENV-4 G2b Brazil): 1.54 ± 0.15 nM
- EC50 (DENV-4 G3 Thailand): 45 nM
- EC90 (DENV-4 G3 Thailand): 46 ± 12 nM
- EC50 (DENV-4 Sylvatic Malaysia): 0.66 ± 0.42 nM
- EC90 (DENV-4 Sylvatic Malaysia): 1.6 ± 1.1 nM
- EC50 (RSV rgRSV224; read-out: EC50, Mean): 3180 nM
- EC90 (RSV rgRSV224; read-out: EC90, Mean): 5460 nM
- EC50 (VACV Western reserve 56): 8900 nM
- clearance ([2]; male, CD-1, in vivo, iv, mouse i.v. 2.5 mg/kg, read-out: CLp): 4.97 ± 1.26 mL/min/kg
- Cmax ([2]; male, CD-1, in vivo, mouse oral 3 mg/kg): 501 ± 149 ng/mL
- half-life ([2]; male, CD-1, mouse, plasma, iv, 2.5 mg/kg, mouse i.v. 2.5 mg/kg): 6.2 h
- bioavailability ([2]; male, CD-1, mouse, plasma, 1 mg/kg, mouse oral 1 mg/kg): 46 ± 6%
- bioavailability ([2]; male, CD-1, mouse, plasma, 3 mg/kg, mouse oral 3 mg/kg): 59 ± 28%
- bioavailability ([2]; male, CD-1, mouse, plasma, 10 mg/kg, mouse oral 10 mg/kg): > 100%
- bioavailability ([2]; male, CD-1, mouse, plasma, 30 mg/kg, mouse oral 30 mg/kg): 121 ± 21%
- AUC(0-t) ([2]; male, CD-1, mouse, plasma, mice, single oral dose 1 to 30 mg per kg, read-out: AUC0–24h, range): 1520 to 120000 ng·h/mL
- AUC(0-inf) ([2]; male, CD-1, plasma, iv, mouse i.v. 2.5 mg/kg): 8820 ng·h/mL
- AUC(0-t) ([2]; male, CD-1, plasma, iv, mouse i.v. 2.5 mg/kg, read-out: AUC(0-24h)): 8240 ng·h/mL
- Cmax [2, 3]: 119 ± 26 ng/mL
- Tmax [2, 3]: 5 ± 1.7 h
- AUC(0-t) ([2]; male, CD-1, plasma, mouse oral 1 mg/kg, read-out: AUC(0-24h)): 1520 ng·h/mL
- Tmax ([2]; male, CD-1, plasma, mouse oral 3 mg/kg): 5 ± 1.7 h
- AUC(0-t) ([2]; male, CD-1, plasma, mouse oral 3 mg/kg, read-out: AUC(0-24h)): 5780 ng·h/mL
- Cmax [2, 4]: 2730 ng/mL
- Tmax [2, 4]: 7 h
- AUC(0-t) ([2]; male, CD-1, plasma, mouse oral 10 mg/kg, read-out: AUC(0-24h)): 35600 ng·h/mL
- Cmax [2, 5]: 7760 ng/mL
- Tmax [2, 5]: 6 ± 1.7 h
- AUC(0-t) ([2]; male, CD-1, plasma, mouse oral 30 mg/kg, read-out: AUC(0-24h)): 120000 ng·h/mL
- Vdssp [2, 6]: 2.51 ± 0.55 L/kg and 2.51 ± 0.553 L/kg
- t1/2 [2, 6]: 6.17 ± 0.23 h
- F ([2]; mouse oral 1 mg/kg, 1 mg/kg): 46.1+/-6.47%
- F ([2]; mouse oral 3 mg/kg, 3 mg/kg): 58.5+/-27.9%
- Tmax (in vivo): 8 h
